Laboratory results: patent US5250518A, “O-methyl derivatives of azithromycin A” (priority 1990, dated 1993)
Values after ≈ are worked out from the molar mass of the structure shown. Like-named read-outs stand apart in the source and are kept apart here.

Key:
[1] = cited from earlier work
[2] = tested on: Staphylococcus aureus 10097; assay: Antibacterial in vitro activity against clinical isolates, tube dilution method (Table 2); assay type: cell-based; conditions: clinical isolate, Brain hearth bouillon, 24 hours, 37° C.
Experimental: (§1) O-methyl derivatives of azithromycin A of the formulae (Ii)-(Il) and their pharmaceutically acceptable addition salts have a potent antimicrobial activity. The preliminary antibacterial in vitro activity of 6-O-methyl-azithromycin A (Ii) was determined on a series of gram-positiveand gram-negative test bacteria and clinical isolates in comparison with erythromycin A. The assessment was performed by the "tube dilution" method. In the investigation there were used 24-hours cultures in "brain hearth bouillon" of standard strains and freshly isolated strains from a clinical sample.
(§2) Substrate: Brain hearth bouillon
(§3) Incubation: 24 hours, 37° C.
(§4) MIC: Minimal Inhibitory Concentration (μg/mL)
(§5) MBC: Minimal Bactericidal Concentation (μg/mL)

[3] = tested on: Staphylococcus saprophyticus 3947; assay: as above; assay type: cell-based; conditions: clinical isolate, Brain hearth bouillon, 24 hours, 37° C.
Experimental: as §1, §2, §3, §4, §5

[4] = tested on: Streptococcus faecalis 10390; assay: as above; assay type: cell-based; conditions: Enterococcus faecalis, clinical isolate, Brain hearth bouillon, 24 hours, 37° C.
Experimental: as §1, §2, §3, §4, §5

[5] = tested on: Haemophylus influenzae 4028; assay: as above; assay type: cell-based; conditions: clinical isolate, Brain hearth bouillon, 24 hours, 37° C.
Experimental: as §1, §2, §3, §4, §5

[6] = tested on: Streptococcus pneumoniae 4050; assay: as above; assay type: cell-based; conditions: clinical isolate, Brain hearth bouillon, 24 hours, 37° C.
Experimental: as §1, §2, §3, §4, §5

[7] = tested on: Staphylococcus aureus 10099; assay: as above; assay type: cell-based; conditions: clinical isolate, Brain hearth bouillon, 24 hours, 37° C.
Experimental: as §1, §2, §3, §4, §5

Sarcina lutea ATCC-9341 = assay: Antibacterial in vitro activity, tube dilution method (Table 1); assay type: cell-based; conditions: Micrococcus luteus, ATCC9341, Brain hearth bouillon, 24 hours, 37° C.
Experimental: (§6) The preliminary antibacterial in vitro activity of 6-O-methyl-azithromycin A (Ii) was determined on a series of gram-positiveand gram-negative test bacteria and clinical isolates in comparison with erythromycin A. The assessment was performed by the "tube dilution" method. In the investigation there were used 24-hours cultures in "brain hearth bouillon" of standard strains and freshly isolated strains from a clinical sample.

[8] = tested on: Escherichia coli ATCC 10536; assay: as above; assay type: cell-based; conditions: ATCC10536, Brain hearth bouillon, 24 hours, 37° C.
Experimental: as §6

[9] = tested on: Klebsiella pneumoniae NCTC-10499; assay: as above; assay type: cell-based; conditions: NCTC10499, 24 h
Experimental: as §1, §2, §3, §4
(§7) MBC: Minimal Bactericidal Concentration (μg/mL)

[10] = tested on: Staphilococcus aureus ATCC 6538-P; assay: as above; assay type: cell-based; conditions: 24 h
Experimental: as §1, §2, §3, §4, §7

[11] = tested on: Streptococcus faecalis ATCC-8043; assay: as above; assay type: cell-based; conditions: Enterococcus faecalis, ATCC8043, 24 h
Experimental: as §1, §2, §3, §4, §7

[12] = tested on: Pseudomonas aeruginosa NCTC-10490; assay: as above; assay type: cell-based; conditions: NCTC10490, 24 h
Experimental: as §1, §2, §3, §4, §7

[13] = tested on: Bacillus cereus NCTC 10320; assay: Antibacterial in vitro activity in comparison with azithromycin (Table 3); assay type: cell-based; conditions: NCTC10320, Brain hearth Bouillon, 24-48 hours, 37° C., inoculum 10^-5 -10^-6 cfu/mL
Text: (§8) In Table 3 there are represented in vitro tests of 6-O-methyl- (Ii), 6,11-di-O-methyl- (Ij), 11-O-methyl- (Ik) and 6,11,4"-tri-O-methyl-azithromycin A (II) in comparison with azithromycin.

Sarcina lutea ATCC 9341 = assay: as above; assay type: cell-based; conditions: Micrococcus luteus, ATCC9341; Brain hearth Bouillon, 24-48 hours, 37° C., inoculum 10^-5 -10^-6 cfu/mL
Text: as §8

[14] = tested on: Pseudomonas aeruginosa NCTC 10490; assay: as above; assay type: cell-based; conditions: NCTC10490, Brain hearth Bouillon, 24-48 hours, 37° C., inoculum 10^-5 -10^-6 cfu/mL
Text: as §8

ATCC 8043 = assay: as above; assay type: cell-based; conditions: Staphylococcus faecalis, ATCC8043; Brain hearth Bouillon, 24-48 hours, 37° C., inoculum 10^-5 -10^-6 cfu/mL
Text: as §8

[15] = tested on: Staphylococcus epidermidis ATCC 12228; assay: as above; assay type: cell-based; conditions: ATCC12228, Brain hearth Bouillon, 24-48 hours, 37° C., inoculum 10^-5 -10^-6 cfu/mL
Text: as §8

[16] = tested on: Bacillus pumilus NCTC 8241; assay: as above; assay type: cell-based; conditions: NCTC8241, Brain hearth Bouillon, 24-48 hours, 37° C., inoculum 10^-5 -10^-6 cfu/mL
Text: as §8

[17] = tested on: Bacillus subtilis NCTC 8241; assay: as above; assay type: cell-based; conditions: Bacillus subtilis, NCTC8241; Brain hearth Bouillon, 24-48 hours, 37° C., inoculum 10^-5 -10^-6 cfu/mL
Text: as §8

[18] = tested on: Escherichia coli ATCC 10536; assay: as above; assay type: cell-based; conditions: ATCC10536, Brain hearth Bouillon, 24-48 hours, 37° C., inoculum 10^-5 -10^-6 cfu/mL
Text: as §8

ATCC 10240 = assay: as above; assay type: cell-based; conditions: Brain hearth Bouillon, 24-48 hours, 37° C., inoculum 10^-5 -10^-6 cfu/mL
Text: as §8

[19] = tested on: Corynebacterium xerosis NCTC 9755; assay: as above; assay type: cell-based; conditions: NCTC9755, Brain hearth Bouillon, 24-48 hours, 37° C., inoculum 10^-5 -10^-6 cfu/mL
Text: as §8

ATCC 6538P = assay: as above; assay type: cell-based, Staphilococcus aureus
Text: as §8

[20] = in comparison with the parent antibiotic (erythromycin A); cited from earlier work
[21] = tested on: gram-negative microorganisms; conditions: in comparison with the parent antibiotic (erythromycin A); cited from earlier work
[22] = tested on: gram-positive microorganisms; conditions: in comparison to erythromycin A; cited from earlier work
[23] = read-out: MBC (Minimal Bactericidal Concentation)
[24] = read-out: MIC (Minimal Inhibitory Concentration)
[25] = read-out: MBC (Minimal Bactericidal Concentration)
[26] = Brain hearth Bouillon, 24-48 hours, 37° C., inoculum 10^-5 -10^-6 cfu/mL, read-out: MIC

Structure (SMILES): CC[C@H]1OC(=O)[C@H](C)[C@@H](O[C@H]2C[C@@](C)(OC)[C@@H](O)[C@H](C)O2)[C@H](C)[C@@H](O[C@@H]2O[C@H](C)C[C@H](N(C)C)[C@H]2O)[C@](C)(O)C[C@@H](C)C(=O)[C@H](C)[C@@H](O)[C@]1(C)O [Erythromycin A, reference compound]
- behaviour in acidic medium ([1]; acidic medium): easily converted into anhydroerythromycin
- MBC [2, 23]: 0.4 µg/mL (≈ 0.545 µM)
- MIC [2, 24]: 0.1 µg/mL (≈ 0.136 µM)
- MBC [3, 23]: 0.8 µg/mL (≈ 1.09 µM)
- MIC [3, 24]: 0.4 µg/mL (≈ 0.545 µM)
- MBC [4, 23]: 3.1 µg/mL (≈ 4.22 µM)
- MIC [4, 24]: 0.8 µg/mL (≈ 1.09 µM)
- MBC [5, 23]: 0.2 µg/mL (≈ 0.273 µM)
- MIC [5, 24]: 0.05 µg/mL (≈ 0.0681 µM)
- MBC [6, 23]: 0.4 µg/mL (≈ 0.545 µM)
- MIC [6, 24]: 0.1 µg/mL (≈ 0.136 µM)
- MBC [7, 23]: 0.2 µg/mL (≈ 0.273 µM)
- MIC [7, 24]: 0.1 µg/mL (≈ 0.136 µM)
- MBC (Sarcina lutea ATCC-9341; [25]): 0.4 µg/mL (≈ 0.545 µM)
- MIC (Sarcina lutea ATCC-9341; [24]): 0.2 µg/mL (≈ 0.273 µM)
- MBC [8, 25]: > 50 µg/mL
- MIC [8, 24]: 50 µg/mL (≈ 68.1 µM)
- MBC [9, 25]: > 50 µg/mL
- MIC [9, 24]: > 50 µg/mL
- MBC [10, 25]: 0.8 µg/mL (≈ 1.09 µM)
- MIC [10, 24]: 0.2 µg/mL (≈ 0.273 µM)
- MBC [11, 25]: 0.8 µg/mL (≈ 1.09 µM)
- MIC [11, 24]: 0.2 µg/mL (≈ 0.273 µM)
- MBC [12, 25]: > 50 µg/mL
- MIC [12, 24]: > 50 µg/mL

Structure (SMILES): CC[C@H]1OC(=O)[C@H](C)[C@@H](O[C@H]2C[C@@](C)(OC)[C@@H](O)[C@H](C)O2)[C@H](C)[C@@H](O[C@@H]2O[C@H](C)C[C@H](N(C)C)[C@H]2O)[C@](C)(OC)C[C@@H](C)CN(C)[C@H](C)[C@@H](OC)[C@]1(C)O [Ij, 6,11-Di-O-Methyl-azithromycin A]
- MIC [13]: 1.56 µg/mL (≈ 2.01 µM)
- MIC (Sarcina lutea ATCC 9341): 0.05 µg/mL (≈ 0.0643 µM)
- MIC [14]: 100 µg/mL (≈ 129 µM)
- MIC (ATCC 8043): 0.78 µg/mL (≈ 1 µM)
- MIC [15]: 1.56 µg/mL (≈ 2.01 µM)
- MIC [16]: 0.78 µg/mL (≈ 1 µM)
- MIC [17]: 0.78 µg/mL (≈ 1 µM)
- MIC [18]: 6.25 µg/mL (≈ 8.04 µM)
- MIC (ATCC 10240): 0.78 µg/mL (≈ 1 µM)
- MIC [19]: 12.5 µg/mL (≈ 16.1 µM)
- MIC (ATCC 6538P; [26]): 1.56 µg/mL (≈ 2.01 µM)

Structure (SMILES): CC[C@H]1OC(=O)[C@H](C)[C@@H](O[C@H]2C[C@@](C)(OC)[C@@H](OC)[C@H](C)O2)[C@H](C)[C@@H](O[C@@H]2O[C@H](C)C[C@H](N(C)C)[C@H]2O)[C@](C)(OC)C[C@@H](C)CN(C)[C@H](C)[C@@H](OC)[C@]1(C)O [Il, 6,11,4"Tri-O-Methyl-azithromycin A]
- MIC [13]: 3.12 µg/mL (≈ 3.95 µM)
- MIC (Sarcina lutea ATCC 9341): 0.05 µg/mL (≈ 0.0632 µM)
- MIC [14]: 200 µg/mL (≈ 253 µM)
- MIC (ATCC 8043): 0.78 µg/mL (≈ 0.986 µM)
- MIC [15]: 3.12 µg/mL (≈ 3.95 µM)
- MIC [16]: 3.12 µg/mL (≈ 3.95 µM)
- MIC [17]: 3.12 µg/mL (≈ 3.95 µM)
- MIC [18]: 6.25 µg/mL (≈ 7.9 µM)
- MIC (ATCC 10240): 3.12 µg/mL (≈ 3.95 µM)
- MIC [19]: 25 µg/mL (≈ 31.6 µM)
- MIC (ATCC 6538P; [26]): 3.12 µg/mL (≈ 3.95 µM)

Structure (SMILES): CC[C@H]1OC(=O)[C@H](C)[C@@H](O[C@H]2C[C@@](C)(OC)[C@@H](O)[C@H](C)O2)[C@H](C)[C@@H](O[C@@H]2O[C@H](C)C[C@H](N(C)C)[C@H]2O)[C@](C)(O)C[C@@H](C)CN(C)[C@H](C)[C@@H](O)[C@]1(C)O [azithromycin, N-methyl-11-aza-10-deoxo-10-dihydroerythromycin A (9-deoxo-9a-aza-9a-methyl-9a-homoerythromycin A)]
- MIC [13]: 0.39 µg/mL (≈ 0.521 µM)
- MIC (Sarcina lutea ATCC 9341): 0.05 µg/mL (≈ 0.0668 µM)
- MIC [14]: 100 µg/mL (≈ 134 µM)
- MIC (ATCC 8043): 0.05 µg/mL (≈ 0.0668 µM)
- MIC [15]: 0.1 µg/mL (≈ 0.134 µM)
- MIC [16]: 0.2 µg/mL (≈ 0.267 µM)
- MIC [17]: 0.39 µg/mL (≈ 0.521 µM)
- MIC [18]: 0.78 µg/mL (≈ 1.04 µM)
- MIC (ATCC 10240): 0.39 µg/mL (≈ 0.521 µM)
- MIC [19]: 6.25 µg/mL (≈ 8.34 µM)
- concentration in the tissues [20]: significantly higher conncentration in the tissues
- stability in acidic medium in comparison with the parent antibiotic ([1]; versus erythromycin A): improved stability in acidic medium
- in vitro activity against gram-negative microorganisms [21]: improved in vitro activity against gram-negative microorganisms
- MIC (ATCC 6538P): 1.56 µg/mL (≈ 2.08 µM)

Structure (SMILES): CC[C@H]1OC(=O)[C@H](C)[C@@H](O[C@H]2C[C@@](C)(OC)[C@@H](O)[C@H](C)O2)[C@H](C)[C@@H](O[C@@H]2O[C@H](C)C[C@H](N(C)C)[C@H]2O)[C@](C)(OC)C[C@@H](C)C(=O)[C@H](C)[C@@H](O)[C@]1(C)O [clarithromycin, 6-O-methyl-erythromycin A]
- in vitro activity against gram-positive microorganisms [22]: improved in vitro activity against gram-positive microorganisms
